# Measurements reported in patent US20030215462A1, “Use of UGT inhibitors to increase bioavailability” (priority 2001, published 2003).
# Several values for one entry are separate records, joined by “and”; a condition that tells them apart may be missing. Equal values may be shown once.
# Columns and labels:
# [1] = tested on: UGT enzymes of pooled human jejunum microsomes; assay: Inhibition of estradiol (E2) glucuronidation in pooled human jejunum microsomes; type: biochemical; details: jejunum HJ61; E2 50 μM; inhibitor 50 μM
# Text: (§1) Compounds were eluted using a binary solvent gradient system where solvent A was dilute phosphoric acid (pH 3) and solvent B was 80:20 acetonitrile-methanol. […] Detection was at 280 nm.
# [2] = target: T1, UGT enzymes of human liver microsomes; assay: Inhibition of 7-HFC glucuronidation in human liver microsomes; type: biochemical; details: for % of control metabolism (SD, n = 3), 7-HFC glucuronidation: human liver microsomes 100 μg/ml
# T1 construct: percentage of control metabolism, 7-HFC glucuronidation; percentage of control metabolism, 7-HFC glucuronidation
# [3] = tested on: T1, UGT enzymes of human liver microsomes; assay: Kinetic and Ki studies of inhibitors of 7-HFC glucuronidation in human liver microsomes; type: biochemical; details: 7-HFC 20-500 μM
# UGT1A3 = target: T2, UGT1A3 (Homo sapiens, UniProt P35503); assay: Inhibition of raloxifene glucuronidation by recombinant UGT1A3 Supersomes; details: human; for activity at 15 min, 25 µM: inhibitor 25 μM; for activity at 15 min, 50 µM: inhibitor 50 μM
# T2 sequence (P35503 29-534): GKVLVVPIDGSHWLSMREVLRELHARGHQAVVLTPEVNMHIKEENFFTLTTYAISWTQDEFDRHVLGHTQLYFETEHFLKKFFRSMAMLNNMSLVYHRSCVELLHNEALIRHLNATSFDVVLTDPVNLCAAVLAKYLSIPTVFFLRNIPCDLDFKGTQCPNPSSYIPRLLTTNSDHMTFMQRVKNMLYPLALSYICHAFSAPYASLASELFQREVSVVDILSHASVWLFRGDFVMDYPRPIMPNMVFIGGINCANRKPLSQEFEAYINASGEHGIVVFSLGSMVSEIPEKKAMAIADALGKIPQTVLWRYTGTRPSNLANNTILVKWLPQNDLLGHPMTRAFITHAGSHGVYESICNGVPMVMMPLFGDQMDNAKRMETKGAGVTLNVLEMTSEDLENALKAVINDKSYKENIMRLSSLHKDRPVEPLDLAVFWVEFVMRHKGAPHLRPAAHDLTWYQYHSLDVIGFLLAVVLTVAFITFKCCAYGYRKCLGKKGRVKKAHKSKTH
# Method: (§2) Compounds were eluted using a binary solvent gradient system. Solvent A was water brought to pH 8 with NH4OH. Solvent B was methanol. Solvent flow rate was 1 ml/min and the column temperature was maintained at 50° C. Detection was at 280 nm. […] The system was then returned to the initial conditions and equilibrated for 3 min.
# [4] = tested on: T3, UGT enzymes of human liver microsomes; assay: Inhibition of 2ME2 glucuronidation (MG1, MG2) in human liver microsomes; type: biochemical; details: liver 062101, 2ME2 50 μM
# T3 construct: other: liver 062101
# Text: as §1
# UGT1A1 = target: T4, UGT1A1 (Homo sapiens, UniProt P22309); assay: Inhibition of raloxifene glucuronidation by recombinant UGT1A1 Supersomes; details: human; for activity at 15 min, 25 µM: inhibitor 25 μM; for activity at 15 min, 50 µM: inhibitor 50 μM
# T4 sequence (P22309 26-533): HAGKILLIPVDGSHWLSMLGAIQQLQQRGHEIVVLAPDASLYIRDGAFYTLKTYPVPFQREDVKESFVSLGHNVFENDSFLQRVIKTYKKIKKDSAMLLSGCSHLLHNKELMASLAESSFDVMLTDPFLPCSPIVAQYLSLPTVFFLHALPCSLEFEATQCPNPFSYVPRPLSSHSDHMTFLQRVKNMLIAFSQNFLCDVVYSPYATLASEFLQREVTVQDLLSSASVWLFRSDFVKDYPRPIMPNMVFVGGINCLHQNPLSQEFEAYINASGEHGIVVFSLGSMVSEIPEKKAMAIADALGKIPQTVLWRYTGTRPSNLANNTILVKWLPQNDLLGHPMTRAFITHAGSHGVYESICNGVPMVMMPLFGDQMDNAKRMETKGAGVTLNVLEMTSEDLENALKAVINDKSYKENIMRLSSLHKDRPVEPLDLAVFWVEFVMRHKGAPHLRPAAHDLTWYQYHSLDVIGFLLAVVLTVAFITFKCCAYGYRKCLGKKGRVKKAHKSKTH
# Method: as §2
# [5] = tested on: UGT enzymes of human liver microsomes; assay: Inhibition of raloxifene glucuronidation (G1, G2) in human liver microsomes; type: biochemical; details: for % of control metabolism (SD, n = 3), raloxifene glucuronide G1 / % of control metabolism (SD, n = 3), raloxifene glucuronide G2: human liver microsomes 250 μg/ml, 15 min
# Text: Compounds were eluted using a binary solvent gradient system. […] Solvent B was methanol. […] Detection was at 280 nm.
# [6] = Supersomes with recombinant human UGT1A3, pH 7.5, probe raloxifene 50 μM, formation of glucuronide G1, % of control metabolism, raloxifene G1, UGT1A3
# [7] = Supersomes with recombinant human UGT1A3, pH 7.5, probe raloxifene 50 μM, formation of glucuronide G2, % of control metabolism, raloxifene G2, UGT1A3
# [8] = recombinant UGT1A3 Supersomes, pH 7.5, probe raloxifene 50 μM (formation of glucuronide G1), Inhibition of raloxifene glucuronidation, G1, UGT1A3, G1, raloxifene 50 μM, 250 μg/ml Supersomes, 1 mM UDPGA, 15 min
# [9] = recombinant UGT1A3 Supersomes, pH 7.5, probe raloxifene 50 μM (formation of glucuronide G2), Inhibition of raloxifene glucuronidation, G2, UGT1A3, G2, raloxifene 50 μM, 250 μg/ml Supersomes, 1 mM UDPGA, 15 min
# [10] = Supersomes with recombinant human UGT1A1, pH 7.5, probe raloxifene 50 μM, formation of glucuronide G1, % of control metabolism, raloxifene G1, UGT1A1
# [11] = Supersomes with recombinant human UGT1A1, pH 7.5, probe raloxifene 50 μM, formation of glucuronide G1, Inhibition of raloxifene glucuronidation, G1, UGT1A1, G1, raloxifene 50 μM, 250 μg/ml Supersomes, 1 mM UDPGA, 15 min
# [12] = Supersomes with recombinant human UGT1A1, pH 7.5, probe raloxifene 50 μM, formation of glucuronide G2, % of control metabolism, raloxifene G2, UGT1A1
# [13] = recombinant UGT1A1 Supersomes, pH 7.5, probe raloxifene 50 μM (formation of glucuronide G2), Inhibition of raloxifene glucuronidation, G2, UGT1A1, G2, raloxifene 50 μM, 250 μg/ml Supersomes, 1 mM UDPGA, 15 min
# [14] = inhibitor 10 μM, raloxifene 50 μM
# [15] = inhibitor 25 μM, raloxifene 50 μM
# [16] = inhibitor 50 μM, raloxifene 50 μM
# [17] = inhibitor 100 μM, raloxifene 50 μM
# [18] = inhibitor 500 μM, raloxifene 50 μM
# [19] = liver lot 032101, inhibitor 50 μM
# [20] = liver lot 062101, inhibitor 50 μM
# [21] = liver lot 083000, inhibitor 50 μM
# [22] = raloxifene 50 μM, inhibitor 10 μM
# [23] = raloxifene 50 μM, inhibitor 25 μM
# [24] = raloxifene 50 μM, inhibitor 50 μM
# [25] = raloxifene 50 μM, inhibitor 100 μM
smiles,measurement,setting,value
O=C(O[C@@H]1Cc2c(O)cc(O)cc2O[C@H]1c1cc(O)c(O)c(O)c1)c1cc(O)c(O)c(O)c1 [Gallocatechin gallate],"residual metabolism (% of control), E2-3-β-D-glucuronide",[1],25 (1) %
same,"residual metabolism (% of control), E2-17-β-D-glucuronide",[1],39 (1) %
same,IC50,"[2]; 7-HFC 50 μM, 1 mM UDPGA, 15 min",100 µM
same,"percentage of control metabolism, 7-HFC glucuronidation",[2]; inhibitor 25 μM,80 (2) %
same,"% of control metabolism (SD, n = 3), 7-HFC glucuronidation","[2]; inhibitor 25 μM, 7-HFC 50 μM, 15 min",80 (2) %
same,"percentage of control metabolism, 7-HFC glucuronidation",[2]; inhibitor 50 μM,68 (2) %
same,"% of control metabolism (SD, n = 3), 7-HFC glucuronidation","[2]; inhibitor 50 μM, 7-HFC 50 μM, 15 min",68 (2) %
same,"percentage of control metabolism, 7-HFC glucuronidation",[2]; inhibitor 100 μM,54 (1) % and 46 (2) %
same,"% of control metabolism (SD, n = 3), 7-HFC glucuronidation","[2]; inhibitor 100 μM, 7-HFC 50 μM, 15 min",54 (1) % and 46 (2) %
same,"percentage of control metabolism, 7-HFC glucuronidation",[2]; inhibitor 200 μM,25 (0) %
same,"% of control metabolism (SD, n = 3), 7-HFC glucuronidation","[2]; inhibitor 200 μM, 7-HFC 50 μM, 15 min",25 (0) %
same,"percentage of control metabolism, 7-HFC glucuronidation",[2]; inhibitor 500 μM,0 (0) %
same,"% of control metabolism (SD, n = 3), 7-HFC glucuronidation","[2]; inhibitor 500 μM, 7-HFC 50 μM, 15 min",0 (0) %
same,Vmax of 7-HFC glucuronidation (fit of the experiment with this inhibitor),[3],54 ± 3 nmol/min/mg
same,Km,[3]; read-out: Km of 7-HFC glucuronidation (fit of the experiment with this inhibitor),75 ± 7 µM
same,"activity at 15 min, 25 µM",UGT1A3; [6],65%
same,"activity at 15 min, 50 µM",UGT1A3; [6],39%
same,"activity at 15 min, 25 µM",UGT1A3; [7],70%
same,"activity at 15 min, 50 µM",UGT1A3; [7],38%
same,"activity at 15 min, 25 µM",UGT1A3; [8],64%
same,"activity at 15 min, 50 µM",UGT1A3; [8],39%
same,"activity at 15 min, 25 µM",UGT1A3; [9],70%
same,"activity at 15 min, 50 µM",UGT1A3; [9],38%
same,"residual metabolism (% of control), 2ME2 MG1",[4]; inhibitor 25 μM,33 (1) %
same,"residual metabolism (% of control), 2ME2 MG2",[4]; inhibitor 25 μM,73 (1) %
same,"residual metabolism (% of control), 2ME2 MG1",[4]; inhibitor 50 μM,21 (2) %
same,"residual metabolism (% of control), 2ME2 MG2",[4]; inhibitor 50 μM,61 (1) %
same,"residual metabolism (% of control), 2ME2 MG1",[4]; inhibitor 100 μM,9 (1) %
same,"residual metabolism (% of control), 2ME2 MG2",[4]; inhibitor 100 μM,36 (1) %
same,activity at 15 min,"UGT1A1; Supersomes with recombinant human UGT1A1, pH 7.5, probe raloxifene 50 μM, formation of glucuronide G1",79%
same,"activity at 15 min, 25 µM",UGT1A1; [10],52%
same,"activity at 15 min, 50 µM",UGT1A1; [10],30%
same,"activity at 15 min, 25 µM",UGT1A1; [11],52%
same,"activity at 15 min, 50 µM",UGT1A1; [11],30%
same,"activity at 15 min, 25 µM",UGT1A1; [12],54%
same,"activity at 15 min, 50 µM",UGT1A1; [12],32%
same,activity at 15 min,"UGT1A1; recombinant UGT1A1 Supersomes, pH 7.5, probe raloxifene 50 μM (formation of glucuronide G2)",76%
same,"activity at 15 min, 25 µM",UGT1A1; [13],54%
same,"activity at 15 min, 50 µM",UGT1A1; [13],32%
same,"% of control metabolism (SD, n = 3), raloxifene glucuronide G1",[5]; [14],80 (6) %
same,"% of control metabolism (SD, n = 3), raloxifene glucuronide G1",[5]; [15],62 (7) %
same,"% of control metabolism (SD, n = 3), raloxifene glucuronide G1",[5]; [16],45 (2) %
same,"% of control metabolism (SD, n = 3), raloxifene glucuronide G1",[5]; [17],20 (1) %
same,"% of control metabolism (SD, n = 3), raloxifene glucuronide G1",[5]; [18],0 (0) %
same,"% of control metabolism (SD, n = 3), raloxifene glucuronide G2",[5]; [14],83 (4) %
same,"% of control metabolism (SD, n = 3), raloxifene glucuronide G2",[5]; [15],64 (4) %
same,"% of control metabolism (SD, n = 3), raloxifene glucuronide G2",[5]; [16],47 (2) %
same,"% of control metabolism (SD, n = 3), raloxifene glucuronide G2",[5]; [17],29 (1) %
same,"% of control metabolism (SD, n = 3), raloxifene glucuronide G2",[5]; [18],0 (0) %
same,"% of control metabolism, raloxifene G1",[5]; [19],29 (1) %
same,"% of control metabolism, raloxifene G2",[5]; [19],28 (0) %
same,"% of control metabolism, raloxifene G1",[5]; [20],40 (3) %
same,"% of control metabolism, raloxifene G2",[5]; [20],22 (1) %
same,"% of control metabolism, raloxifene G1",[5]; [21],45 (2) %
same,"% of control metabolism, raloxifene G2",[5]; [21],47 (2) %
same,"% of control metabolism, raloxifene G1",[5]; [22],80 (6) %
same,"% of control metabolism, raloxifene G2",[5]; [22],83 (4) %
same,"% of control metabolism, raloxifene G1",[5]; [23],62 (7) %
same,"% of control metabolism, raloxifene G2",[5]; [23],64 (4) %
same,"% of control metabolism, raloxifene G1",[5]; [24],45 (2) %
same,"% of control metabolism, raloxifene G2",[5]; [24],47 (2) %
same,"% of control metabolism, raloxifene G1",[5]; [25],20 (1) %
same,"% of control metabolism, raloxifene G2",[5]; [25],29 (1) %
